Experimental data: US20120270929A1, “MODULATION OF TTC39 EXPRESSION TO INCREASE HDL” (ISIS Pharmaceuticals, Inc., priority 2009, published 2012)
Oligonucleotides are written 5' to 3', each unit as a sugar letter and its base; * is a phosphorothioate linkage, no mark a phosphodiester; rarer units and linkages stand in square brackets, end groups in braces. Plain capitals give the bases only. e = 2'-O-(2-methoxyethyl) (MOE); [5mC] = 5-methylcytosine; d = 2'-deoxy (DNA)

Experiments:
Type in all cases: cell-based
murine TTC39C mRNA [1] = assay: Antisense inhibition of mouse TTC39C in mouse primary hepatocytes, single dose; conditions: 8,000 nM antisense oligonucleotide, electroporation, approximately 24 hours, TTC39C mRNA by real-time PCR (RTS3266), relative to untreated control cells
Protocol: Antisense oligonucleotides were designed targeting a TTC39C nucleic acid and were tested for their effects on TTC39C mRNA in vitro. Cultured mouse primary hepatocytes at a density of 30,000 cells per well were transfected by electroporation with 8,000 nM antisense oligonucleotide. After a treatment period of approximately 24 hours, RNA was isolated from the cells and TTC39C mRNA levels were measured by quantitative real-time PCR. Mouse primer probe set RTS3266 (forward sequence […], designated herein as SEQ ID NO: 140; reverse sequence […], designated herein as SEQ ID NO: 141; probe sequence […], designated herein as SEQ ID NO: 142). TTC39C mRNA levels were adjusted according to total RNA content, as measured by RIBOGREEN®. Results are presented as percent inhibition of TTC39C, relative to untreated control cells.
The chimeric antisense oligonucleotides targeting TTC39C were designed as 5-10-5 MOE gapmers. The gapmers are 20 nucleotides in length, wherein the central gap segment is comprised of ten 2′-deoxynucleotides and is flanked on both sides (in the 5′ and 3′ directions) by wings comprising five nucleotides each. Each nucleotide in the 5′ wing segment and each nucleotide in the 3′ wing segment has a 2′-MOE modification. The internucleoside linkages throughout each gapmer are phosphorothioate (P═S) linkages. All cytosine residues throughout each gapmer are 5-methylcytosines. “Mouse Target start site” indicates the 5′-most nucleotide to which the gapmer is targeted in the mouse gene sequence.

murine TTC39C mRNA [2] = assay: Dose-dependent antisense inhibition of murine TTC39C in mouse primary hepatocytes; conditions: electroporation, ~16 h; for IC50: mouse primary hepatocytes
Protocol: Thirty antisense oligonucleotides were selected from the study described in Example 8 and further tested at various doses in mouse primary hepatocytes. Cells were plated at a density of 30,000 cells per well and transfected using electroporation with 500 nM, 1,000 nM, 2,000 nM, 4,000 nM, and 8,000 nM concentrations of antisense oligonucleotide, as specified in Table 30. After a treatment period of approximately 16 hours, RNA was isolated from the cells and TTC39C mRNA levels were measured by quantitative real-time PCR. Murine primer probe set RTS3266 was used to measure mRNA levels. TTC39C mRNA levels were adjusted according to total RNA content, as measured by RIBOGREEN®. Results are presented as percent inhibition of TTC39C, relative to untreated control cells.

murine TTC39B mRNA [3] = assay: Antisense inhibition of murine TTC39B in mouse primary hepatocytes, single dose; conditions: 100 nM, cytofectin, ~24 h, vs untreated control; gapmers targeted to SEQ ID NO: 6
Protocol: Antisense oligonucleotides targeted to a TTC39B nucleic acid were tested for their effects on TTC39B mRNA in vitro. Cultured mouse primary hepatocytes at a density of 10,000 cells per well were transfected using cytofectin reagent with 100 nM antisense oligonucleotide. After a treatment period of approximately 24 hours, RNA was isolated from the cells and TTC39B mRNA levels were measured by quantitative real-time PCR. TTC39B mRNA levels were adjusted according to total RNA content, as measured by RIBOGREEN®. Results are presented as percent inhibition of TTC39B, relative to untreated control cells.
The chimeric antisense oligonucleotides in Tables 1 and 2 were designed as 5-10-5 MOE gapmers. The gapmers are 20 nucleotides in length, wherein the central gap segment is comprised of 10 2′-deoxynucleotides and is flanked on both sides (in the 5′ and 3′ directions) by wings comprising 5 nucleotides each. Each nucleotide in the 5′ wing segment and each nucleotide in the 3′ wing segment has a 2′-MOE modification. The internucleoside linkages throughout each gapmer are phosphorothioate (P═S) linkages. All cytosine residues throughout each gapmer are 5-methylcytosines. “Target start site” indicates the 5′-most nucleotide to which the gapmer is targeted. “Target stop site” indicates the 3′-most nucleotide to which the gapmer is targeted. Each gapmer listed in Table 1 is targeted to SEQ ID NO: 6 (GENBANK Accession No. NM_027238.2) and each gapmer listed in Table 2 is targeted to SEQ ID NO: 10 (the complement of GENBANK Accession No. NT—039260.7 truncated at nucleotides 22491001 to 22601000), SEQ ID NO: 11 (GENBANK Accession No. BY244623.1), SEQ ID NO: 12 (GENBANK Accession No. BY260936), SEQ ID NO: 13 (GENBANK Accession No. BM935568.1) or SEQ ID NO: 14 (GENBANK Accession No. BY728780.1).

murine TTC39B mRNA [4] = assay: Dose-dependent antisense inhibition of murine TTC39B in mouse primary hepatocytes (Example 2); conditions: cytofectin, ~16 h
Protocol: Cells were plated at a density of 10,000 cells per well and transfected using cytofectin reagent with 25 nM, 50 nM, 100 nM, and 200 nM concentrations of antisense oligonucleotide, as specified in Table 3. After a treatment period of approximately 16 hours, RNA was isolated from the cells and TTC39B mRNA levels were measured by quantitative real-time PCR. Murine primer probe set mTtc39b_LTS00287 (forward sequence: […], incorporated herein as SEQ ID NO: 94; reverse sequence: […], incorporated herein as SEQ ID NO: 95; probe sequence: […], incorporated herein as SEQ ID NO: 96) was used to measure mRNA levels. TTC39B mRNA levels were adjusted according to total RNA content, as measured by RIBOGREEN®. Results are presented as percent inhibition of TTC39B, relative to untreated control cells.

Substance	% inhibition (murine TTC39C mRNA [1])	percent inhibition of TTC39C mRNA (murine TTC39C mRNA [2]; 500.0 nM)	percent inhibition of TTC39C mRNA (murine TTC39C mRNA [2]; 1000.0 nM)	percent inhibition of TTC39C mRNA (murine TTC39C mRNA [2]; 2000.0 nM)	percent inhibition of TTC39C mRNA (murine TTC39C mRNA [2]; 4000.0 nM)	percent inhibition of TTC39C mRNA (murine TTC39C mRNA [2]; 8000.0 nM)	IC50 (murine TTC39C mRNA [2])	% inhibition of murine TTC39B mRNA (murine TTC39B mRNA [3])	percent inhibition of TTC39B mRNA (murine TTC39B mRNA [4]; 25 nM)	percent inhibition of TTC39B mRNA (murine TTC39B mRNA [4]; 50 nM)	percent inhibition of TTC39B mRNA (murine TTC39B mRNA [4]; 100 nM)	percent inhibition of TTC39B mRNA (murine TTC39B mRNA [4]; 200 nM)
ISIS 474589: 5-10-5 MOE gapmer antisense oligonucleotide targeting murine TTC39C (antisense eT*e[5mC]*e[5mC]*eG*eA*dA*dA*dT*d[5mC]*dG*d[5mC]*dT*d[5mC]*dA*dG*e[5mC]*e[5mC]*eT*eG*e[5mC])	100%	95%	96%	97%	99%	100%						
ISIS 474613: 5-10-5 MOE gapmer antisense oligonucleotide targeting murine TTC39C (antisense eT*eG*e[5mC]*eT*eT*dT*dA*dA*dT*d[5mC]*d[5mC]*dA*dA*d[5mC]*dG*eA*e[5mC]*eA*eG*eA)	90%	30%	33%	43%	65%	74%	2.1 µM					
ISIS 474600: 5-10-5 MOE gapmer antisense oligonucleotide targeting murine TTC39C (antisense e[5mC]*e[5mC]*eA*eA*eG*dG*dG*d[5mC]*dT*d[5mC]*dT*dT*d[5mC]*d[5mC]*dG*eT*e[5mC]*eA*eG*e[5mC])	90%	47%	57%	66%	86%	89%	0.6 µM					
ISIS 474610: 5-10-5 MOE gapmer antisense oligonucleotide targeting murine TTC39C (antisense eT*eT*eA*eA*eG*dA*dA*d[5mC]*dA*dA*dG*dT*dT*dG*dT*eG*e[5mC]*e[5mC]*e[5mC]*e[5mC])	90%	10%	28%	38%	65%	71%	2.8 µM					
ISIS 474516: 5-10-5 MOE gapmer antisense oligonucleotide targeting murine TTC39C (antisense eT*eT*eA*eG*eT*dG*dG*dA*d[5mC]*dT*dA*dT*dG*dA*dT*eT*eT*e[5mC]*eT*eG)	94%	34%	61%	71%	88%	95%	0.8 µM					
GGTGGAGTCTGGCCCTCAGC (antisense eG*eG*eT*eG*eG*dA*dG*dT*d[5mC]*dT*dG*dG*d[5mC]*d[5mC]*d[5mC]*eT*e[5mC]*eA*eG*e[5mC]) [ISIS 447142]								66%	36%	64%	85%	91%
TCGAAATGTTTCTTGAGCCT (antisense eT*e[5mC]*eG*eA*eA*dA*dT*dG*dT*dT*dT*d[5mC]*dT*dT*dG*eA*eG*e[5mC]*e[5mC]*eT) [ISIS 447119]								65%	28%	52%	80%	77%
